How the values were obtained:
[1] = system: Human monocyte-derived dendritic cells (moDCs); experiment: moDC stimulation with low dose LPS and peptide, flow cytometry; format: cell-based; conditions: LPS 2 ng/mL with peptide 10 μM
Experimental: Human monocyte-derived dendritic cells (moDCs) were stimulated with low dose lipopolysaccharide (LPS) (2 ng/mL) alone, LPS with peptides SG-3-00802 (10 μM) or SG-3-05021 (10 μM), and LPS (2 ng/mL) with IFNg (50 ng/mL) as a positive control. After stimulation of moDCs, flow cytometry was used to determine induction of the CSCR3 receptor.

[2] = target: T1, CCR7 (Homo sapiens, UniProt P32248); experiment: PathHunter β-Arrestin GPCR assay (gpcrMAX); format: cell-based; conditions: vehicle DMSO = 0%, control ligand = 100%
T1 construct: expressed in transfected cells
T1 sequence (P32248 25-378): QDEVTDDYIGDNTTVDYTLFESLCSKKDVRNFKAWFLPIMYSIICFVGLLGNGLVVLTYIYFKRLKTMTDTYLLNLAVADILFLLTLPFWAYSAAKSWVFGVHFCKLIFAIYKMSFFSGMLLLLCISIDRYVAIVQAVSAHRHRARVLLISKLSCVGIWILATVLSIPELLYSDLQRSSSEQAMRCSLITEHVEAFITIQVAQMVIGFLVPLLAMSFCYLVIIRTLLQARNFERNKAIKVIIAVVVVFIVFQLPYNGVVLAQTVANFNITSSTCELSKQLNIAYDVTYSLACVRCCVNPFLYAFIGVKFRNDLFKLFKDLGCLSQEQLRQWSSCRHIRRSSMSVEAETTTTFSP
Description: (§1) The PathHunter® β-Arrestin Assay monitored activation of a panel of 168 G-protein coupled receptors (GPCRs) with […] activation of the GPCR in agonist and antagonist mode.
(§2) where the test sample is the peptide, the vehicle control=DMSO (0% activity), and the control ligand=control compound (100% activity).
(§3) Peptides SG-3-00802 and SG-3-05021 were identified as an agonist, an antagonist, a PAM (Positive Allosteric Modulator), or an inverse-agonist. Agonist, antagonist, PAM, and inverse-agonist were identified according to the guidelines in Table 18. The basal activity/noise is a % activity of −20% to 20% for both agonist and antagonist modes. A PAM (Positive Allosteric Modulator) binds to a receptor, at a different site than the agonist, to change the receptor's response to the agonist. An inverse-Agonist is a binding partner with agonistic shutting down of basal activity in the cell. An antagonist antagonizes the activity of a particular binding partner.

[3] = target: T2, CXCR4 (Homo sapiens, UniProt P61073); experiment: PathHunter β-Arrestin GPCR assay (gpcrMAX); format: cell-based; conditions: vehicle DMSO = 0%, control ligand = 100%
T2 construct: expressed in transfected cells
Description: as §1, §2, §3

[4] = system: CXCL10 production; experiment: Three point dose response cytokine screen of microbiome peptides; format: cell-based; conditions: three point dose response curve
Experimental: Studies were performed to identify target peptides that induced CXCL10 production. Target peptides identified from human microbiomes isolated from humans that responded to anti-PD-1 therapy were each tested in a three point dose response curve with TNF-α, CXCL10, IL6, and INF-γ. […] Peptide sequences and characteristics can be found in Tables 13-15.

[5] = target: T1, CCR7; experiment: SelectScreen chemokine receptor U2OS agonist/antagonist assay; format: cell-based; conditions: CCR7 expressing U2OS cells
Experimental: (§4) Peptides SG-3-00802 and SG-3-05021 were screened for agonist and antagonist activity of the chemokine receptors CCR7, CXCR3, and CXCR4.
(§5) In agonist assays, chemokine receptor expressing U2OS cells are thawed and resuspended in Assay Media (DMEM, 1% dialyzed FBS, 25 mM HEPES pH 7.3, 0.1 mM NEAA, 100 U/mL/100 μg/mL Pen/Strep) to a concentration of 312,500 cells/mL. 4 μL of a 10×serial dilution of I-TAC (control agonist starting concentration, 500 nM) or compounds are added to appropriate wells of a 384-well TC-Treated assay plate. 32 μL of cell suspension (10,000 cells) is added to each well. 4 μL of Assay Media is added to all wells to bring the final assay volume to 40 μL. The plate is incubated for 16-24 hours at 37° C./5% CO2 in a humidified incubator. 8 μL of 1 μM Substrate+Solution D Loading Solution is added to each well and the plate is incubated for 2 hours at room temperature. The plate is read on a fluorescence plate reader.
(§6) In antagonist assays, CXCR3-bla U2OS cells were thawed and prepared as described above for the Agonist assay. 4 μL of 10×compounds or assay media was added to appropriate wells of a TC-Treated assay plate. 32 μL of cell suspension was added to the wells and pre-incubated at 37° C./5% CO2 in a humidified incubator with compounds and control antagonist titration for 30 minutes. 4 μL of 10×control agonist I-TAC at the pre-determined EC80 concentration is added to wells containing the control antagonist or compounds. The plate is incubated for 16-24 hours at 37° C./5% CO2 in a humidified incubator. 8 μL of 1 μM Substrate+Solution D Loading Solution is added to each well and the plate is incubated for 2 hours at room temperature. The plate is read on a fluorescence plate reader.

[6] = target: T2, CXCR4; experiment: as above; format: cell-based; conditions: CXCR4 expressing U2OS cells
Experimental: as §4, §5, §6

[7] = system: immature monocyte-derived dendritic cells (moDCs) and allogeneic T cells; experiment: moDC / allogeneic T cell co-culture cytokine secretion; format: cell-based, human; conditions: after anti-CD40 pre-stimulation, peptide alone or in combination with anti PD1; 72 hours; >4 donor PBMCs
Experimental: In another study, immature monocyte-derived dendritic cells (moDCs) were pre-stimulated with anti-CD40 agonist antibody or the mouse IgG1 isotype control antibody. Twenty-four hours later, T cells isolated from allogeneic donors were added to the moDCs with the peptide of interest, SG-3-00802 or SG-3-05021, alone or in combination with […] monoclonal antibody. The co-culture of cells was incubated for 72 hours, after which cell supernatants were harvested and analyzed for secretion of cytokines, IFN-g and TNF-α. Both SG-3-00802 and SG-3-05021 induced an increase in IFN-γ and TNF-α after stimulation with anti-CD40 either alone or in combination with anti PD1 (FIGS. 26A-26B and 27A-27B). Data shown for experiment conducted in >4 Donor PBMCs.

[8] = system: human purified monocyte-derived dendritic cells; experiment: Chemokine release from LPS stimulated monocyte-derived dendritic cells; format: cell-based; conditions: LPS at low concentrations, suboptimal activation
Description: LPS was used at low concentrations for a suboptimal activation of dendritic cells in the presence of SG-3-00802 peptide or SG-3-05021 peptide.

T2 sequence (P61073 whole entry): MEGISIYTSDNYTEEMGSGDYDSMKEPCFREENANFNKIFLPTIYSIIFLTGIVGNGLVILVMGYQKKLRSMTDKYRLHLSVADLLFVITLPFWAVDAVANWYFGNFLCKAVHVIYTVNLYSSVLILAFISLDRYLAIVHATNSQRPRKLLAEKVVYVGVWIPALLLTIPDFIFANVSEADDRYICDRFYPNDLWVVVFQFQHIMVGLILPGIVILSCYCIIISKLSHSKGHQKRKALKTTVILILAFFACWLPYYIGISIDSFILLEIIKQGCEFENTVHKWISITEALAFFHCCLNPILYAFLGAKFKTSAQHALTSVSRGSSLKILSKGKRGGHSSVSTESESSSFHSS

Sequence	CXCR3 receptor internalization [1]	DC-SIGN expression [1]	% Agonist Activity (gpcrMAX Agonist Mode) [2]	% Antagonist Activity (gpcrMAX Antagonist Mode) [2]	% Agonist Activity (gpcrMAX Agonist Mode) [3]	% Antagonist Activity (gpcrMAX Antagonist Mode) [3]	CXCL10 induction [4]	SelectScreen Agonist Mode [5]	SelectScreen Agonist Mode [6]	IFN-γ secretion [7]	TNF-α secretion [7]	CXCL10 chemokine release [8]	SelectScreen Antagonist Mode [6]
LGKTDWIEKYFKVKKEKIDKMQRFLQG [SG-3-05021, peptide from bacteroides.clarus.dsm.22519]	did not induce CXCR3 receptor internalization	down-regulate DC-SIGN	0%	−18%	1%	10%	high CXCL10 induction	no agonistic activity and No	no agonistic activity and No	increase	increase	dose-dependent increase	–
MKVRPSVKPMCEKCKIIRRKGRVMVICENPKHKQRQG [SG-3-00802, peptide from oscillibacter.sp t_155102]	did not induce CXCR3 receptor internalization	down-regulate DC-SIGN	–	–	–	–	high CXCL10 induction	weak agonistic activity and No	no agonistic activity and No	increase	increase	dose-dependent increase	moderate antagonistic activity and no antagonistic activity and Yes
